Square brackets hold non-standard residues; d marks the D form. Peptide text beside a SMILES is read from it. * marks the point of attachment. His(Trt) = N[C@@H](Cc1cn(C(c2ccccc2)(c2ccccc2)c2ccccc2)cn1)C(=O)O; dHis(Trt) = N[C@H](Cc1cn(C(c2ccccc2)(c2ccccc2)c2ccccc2)cn1)C(=O)O; His(τ-CHPh2) = N[C@@H](Cc1cn(C(c2ccccc2)c2ccccc2)cn1)C(=O)O; Biotin = O=C1N[C@H]2[C@H](CS[C@H]2CCCCC(=O)*)N1; Tyr(3-Cl) = N[C@@H](Cc1ccc(O)c(Cl)c1)C(=O)O; sY = N[C@@H](Cc1ccc(OS(=O)(=O)O)cc1)C(=O)O; Bip = N[C@@H](Cc1ccc(-c2ccccc2)cc1)C(=O)O; dPhe(4-Me) = Cc1ccc(C[C@@H](N)C(=O)O)cc1; dPhe(4-F) = N[C@H](Cc1ccc(F)cc1)C(=O)O; d2Nal = N[C@H](Cc1ccc2ccccc2c1)C(=O)O; Octanoyl = CCCCCCCC(=O)*; Boc = CC(C)(C)OC(=O)*
Target: T1, GPR39 (Homo sapiens, UniProt O43194)
T1 sequence (O43194 1-453): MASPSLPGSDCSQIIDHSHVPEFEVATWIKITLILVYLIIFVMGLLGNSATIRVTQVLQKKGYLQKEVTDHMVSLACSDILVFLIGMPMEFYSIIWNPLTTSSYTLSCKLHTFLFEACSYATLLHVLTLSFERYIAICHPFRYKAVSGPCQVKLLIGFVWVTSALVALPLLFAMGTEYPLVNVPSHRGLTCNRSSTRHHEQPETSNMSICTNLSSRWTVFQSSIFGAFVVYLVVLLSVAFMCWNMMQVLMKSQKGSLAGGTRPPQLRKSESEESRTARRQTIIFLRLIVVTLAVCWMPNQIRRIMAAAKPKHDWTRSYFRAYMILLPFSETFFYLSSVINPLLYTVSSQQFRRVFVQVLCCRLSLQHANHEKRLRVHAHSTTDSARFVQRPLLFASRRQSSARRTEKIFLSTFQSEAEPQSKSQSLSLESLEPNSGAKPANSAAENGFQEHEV
Experiment: luciferase assay system (SRE luciferase reporter gene, CV-1 cells expressing GPR39)
Assay type: cell-based
Parameters: expressed in transfected cells; host or cells: CV-1 fibroblast cell line (Korea Cell Line Bank), adenoviral transduction at 50 MOI
Conditions: not given

Row | Compound | ECmax (−fold induction over basal) [fold induction over basal]
1 | CCCCCCCC(=O)NCCCC[C@H](NC(=O)[C@H](Cc1cn(C(c2ccccc2)(c2ccccc2)c2ccccc2)cn1)NC(=O)CCCC[C@@H]1SC[C@@H]2NC(=O)N[C@@H]21)C(=O)N[C@@H](Cc1ccc(-c2ccccc2)cc1)C(=O)N[C@@H](Cc1ccc(O)cc1)C(=O)O [HKFY-45, ((S)-3-([1,1′-biphenyl]-4-yl)-2-((S)-6-octanamido-2-((S)-2-(5-((3aS,4S,6aR)-2-oxohexahydro-1H-thieno[3,4-d]imidazol-4-yl)pentanamido)-3-(1-trityl-1H-imidazol-4-yl)propanamido)hexanamido)propanoyl)-L-tyrosine] (Biotin-[His(Trt)]K(Octanoyl)[Bip]Y-OH) | 21 ± 2.58
2 | CCCCCCCC(=O)NCCCC[C@H](NC(=O)[C@@H](N)Cc1cn(C(c2ccccc2)c2ccccc2)cn1)C(=O)N[C@H](Cc1ccc(C)cc1)C(=O)N[C@@H](Cc1ccc(OS(=O)(=O)O)cc1)C(=O)O [HKFY-35, (S)-2-((R)-2-((S)-2-((S)-2-amino-3-(1-benzhydryl-1H-imidazol-4-yl)propanamido)-6-octanamidohexanamido)-3-(p-tolyl)propanamido)-3-(4-(sulfooxy)phenyl)propanoic acid] (H-[His(τ-CHPh2)]K(Octanoyl)[dPhe(4-Me)][sY]-OH) | 18.9 ± 0.41
3 | CCCCCCCC(=O)NCCCC[C@H](NC(=O)[C@@H](N)Cc1cn(C(c2ccccc2)(c2ccccc2)c2ccccc2)cn1)C(=O)N[C@@H](Cc1ccccc1)C(=O)N[C@@H](Cc1c[nH]c2ccccc12)C(=O)O [HKFY-46, N6-octanoyl-N2-(Nt-trityl-L-histidyl)-L-lysyl-L-phenylalanyl-L-tryptophan] (H-[His(Trt)]K(Octanoyl)FW-OH) | 20 ± 0.28
4 | CCCCCCCC(=O)NCCCC[C@H](NC(=O)[C@@H](N)Cc1cn(C(c2ccccc2)(c2ccccc2)c2ccccc2)cn1)C(=O)N[C@H](Cc1ccc(F)cc1)C(=O)N[C@@H](Cc1ccc(O)cc1)C(=O)O [HKFY-28, ((R)-2-((S)-2-((S)-2-amino-3-(1-trityl-1H-imidazol-4-yl)propanamido)-6-octanamidohexanamido)-3-(4-fluorophenyl)propanoyl)-L-tyrosine] (H-[His(Trt)]K(Octanoyl)[dPhe(4-F)]Y-OH) | 22.95 ± 2.58
5 | CCCCCCCC(=O)NCCCC[C@H](NC(=O)[C@@H](N)Cc1cn(CCC(c2ccccc2)c2ccccc2)cn1)C(=O)N[C@@H](Cc1ccccc1)C(=O)N[C@@H](Cc1ccc(O)cc1)C(=O)O [HKFY-17] | 20 ± 0.57
6 | CCCCCCCC(=O)NCCCC[C@H](NC(=O)[C@@H](N)Cc1cn(C(c2ccccc2)(c2ccccc2)c2ccccc2)cn1)C(=O)N[C@@H](Cc1ccc(O)cc1)C(=O)N[C@@H](Cc1ccc(O)cc1)C(=O)O [HKFY-48, N6-octanoyl-N2-(Nt-trityl-L-histidyl)-L-lysyl-L-tyrosyl-L-tyrosine] (H-[His(Trt)]K(Octanoyl)YY-OH) | 14.4 ± 2.7
7 | CCCCCCCC(=O)NCCCC[C@H](NC(=O)[C@H](N)Cc1cn(C(c2ccccc2)(c2ccccc2)c2ccccc2)cn1)C(=O)N[C@@H](Cc1ccccc1)C(=O)N[C@@H](Cc1ccc(O)cc1)C(=O)O [HKFY-4, N6-octanoyl-N2-(Nt-trityl-D-histidyl)-L-lysyl-L-phenylalanyl-L-tyrosine] (H-[dHis(Trt)]K(Octanoyl)FY-OH) | 16.8 ± 1.87
8 | CCCCCCCC(=O)NCCCC[C@H](NC(=O)[C@@H](N)Cc1cn(C(c2ccccc2)(c2ccccc2)c2ccccc2)cn1)C(=O)N[C@@H](Cc1ccccc1)C(=O)N[C@@H](Cc1ccc(O)cc1)C(=O)N[C@@H](CCC(N)=O)C(=O)N[C@@H](CC(N)=O)C(=O)N[C@@H](CCC(N)=O)C(=O)N[C@@H](C)C(=O)N[C@@H](CCCNC(=N)N)C(=O)N[C@@H](Cc1ccccc1)C(N)=O [HKFY-43, (S)-N1-((S)-1-(((S)-1-(((S)-1-amino-1-oxo-3-phenylpropan-2-yl)amino)-5-guanidino-1-oxopentan-2-yl)amino)-1-oxopropan-2-yl)-2-((2S,5S,8S,11S,14S)-2-(2-amino-2-oxoethyl)-14-((S)-2-amino-3-(1-trityl-1H-imidazol-4-yl)propanamido)-5-(3-amino-3-oxopropyl)-11-benzyl-8-(4-hydroxybenzyl)-4,7,10,13,20-pentaoxo-3,6,9,12,19-pentaazaheptacosanamido)pentanediamide] (H-[His(Trt)]K(Octanoyl)FYQNQARF-NH2) | 12.1 ± 0.02
9 | CCCCCCCC(=O)NCCCC[C@H](NC(=O)[C@@H](N)Cc1cn(C23CC4CC(CC(C4)C2)C3)cn1)C(=O)N[C@@H](Cc1ccccc1)C(=O)N[C@@H](Cc1ccc(O)cc1)C(=O)O [HKFY-23, N2-(Nt-(adamantan-1-yl)-L-histidyl)-N6-octanoyl-L-lysyl-L-phenylalanyl-L-tyrosine] | 15 ± 1.37
10 | CCCCCCCC(=O)NCCCC[C@H](NC(=O)[C@H](Cc1c[nH]c2ccccc12)NC(=O)OC(C)(C)C)C(=O)N[C@H](Cc1ccc(C)cc1)C(=O)N[C@@H](Cc1ccc(O)cc1)C(=O)O [HKFY-78, ((R)-2-((S)-2-((S)-2-((tert-butoxycarbonyl)amino)-3-(1H-indol-3-yl)propanamido)-6-octanamidohexanamido)-3-(p-tolyl)propanoyl)-L-tyrosine] (Boc-WK(Octanoyl)[dPhe(4-Me)]Y-OH) | 11.4 ± 1.54

The next lines start with the values.

Row | ECmax (−fold induction over basal) [fold induction over basal] | Compound
11 | 18.3 ± 1.8 | CCCCCCCC(=O)NCCCC[C@H](NC(=O)[C@@H](N)Cc1cn(C(c2ccccc2)(c2ccccc2)c2ccccc2)cn1)C(=O)N[C@@H](Cc1ccccc1)C(=O)O [HKFY-49, N6-octanoyl-N2-(Nt-trityl-L-histidyl)-L-lysyl-L-phenylalanine] (H-[His(Trt)]-Lys(Octanoyl)-Phe-OH)
12 | 10.2 ± 1.51 | CCCCCCCC(=O)NCCCC[C@H](NC(=O)[C@@H](N)Cc1cn(C(c2ccccc2)c2ccccc2)cn1)C(=O)N[C@H](Cc1ccc(C)cc1)C(=O)N[C@@H](Cc1ccc(O)c(Cl)c1)C(=O)O [HKFY-67, (S)-2-((R)-2-((S)-2-((S)-2-amino-3-(1-benzhydryl-1H-imidazol-4-yl)propanamido)-6-octanamidohexanamido)-3-(p-tolyl)propanamido)-3-(3-chloro-4-hydroxyphenyl)propanoic acid] (H-[His(τ-CHPh2)]K(Octanoyl)[dPhe(4-Me)][Tyr(3-Cl)]-OH)
13 | 18.8 ± 3.2 | CCCCCCCC(=O)NCCCC[C@H](NC(=O)[C@@H](N)Cc1cn(C(c2ccccc2)(c2ccccc2)c2ccccc2)cn1)C(=O)N[C@H](Cc1ccc2ccccc2c1)C(=O)N[C@@H](Cc1ccc(O)cc1)C(=O)O [HKFY-74, ((R)-2-((S)-2-((S)-2-amino-3-(1-trityl-1H-imidazol-4-yl)propanamido)-6-octanamidohexanamido)-3-(naphthalen-2-yl)propanoyl)-L-tyrosine] (H-[His(Trt)]K(Octanoyl)[d2Nal]Y-OH)
14 | 9.88 ± 1.8 | CCCCCCCC(=O)NCCCC[C@H](NC(=O)[C@@H](N)Cc1cn(-c2ccc(C(C)(C)C)cc2)cn1)C(=O)N[C@H](Cc1ccc(C)cc1)C(=O)N[C@@H](Cc1ccc(O)cc1)C(=O)O [HKFY-61, ((R)-2-((S)-2-((S)-2-amino-3-(1-(4-(tert-butyl)phenyl)-1H-imidazol-4-yl)propanamido)-6-octanamidohexanamido)-3-(p-tolyl)propanoyl)-L-tyrosine]
15 | 16.8 ± 2.5 | CCCCCCCC(=O)NCCCC[C@H](N)C(=O)N[C@@H](Cc1cn(C(c2ccccc2)(c2ccccc2)c2ccccc2)cn1)C(=O)N[C@@H](Cc1ccccc1)C(=O)N[C@@H](Cc1ccc(O)cc1)C(=O)O [HKFY-55, Na-(N6-octanoyl-L-lysyl)-Nt-trityl-L-histidyl-L-phenylalanyl-L-tyrosine] (H-K(Octanoyl)[His(Trt)]FY-OH)

Same assay, conditions: CV-1 cells, GPR39 and SRE luciferase adenovirus, 6 hours treatment

Row | Compound | ECmax (−fold induction over basal) [fold induction over basal]
16 | CCCCCCCC(=O)NCCCC[C@H](NC(=O)[C@@H](N)Cc1cn(C(c2ccccc2)(c2ccccc2)c2ccccc2)cn1)C(=O)N[C@@H](Cc1ccccc1)C(=O)N[C@@H](Cc1ccc(O)cc1)C(=O)N[C@@H](CO)C(=O)N[C@@H](CCC(N)=O)C(=O)N[C@@H](CC(=O)O)C(=O)NCC(=O)N[C@@H](C)C(=O)N[C@@H](CCCNC(=N)N)C(=O)N[C@@H](Cc1ccccc1)C(N)=O [HKFY-41, (3S,6S,9S,12S,15S,18S)-3-((2-(((S)-1-(((S)-1-(((S)-1-amino-1-oxo-3-phenylpropan-2-yl)amino)-5-guanidino-1-oxopentan-2-yl)amino)-1-oxopropan-2-yl)amino)-2-oxoethyl)carbamoyl)-18-((S)-2-amino-3-(1-trityl-1H-imidazol-4-yl)propanamido)-6-(3-amino-3-oxopropyl)-15-benzyl-12-(4-hydroxybenzyl)-9-(hydroxymethyl)-5,8,11,14,17,24-hexaoxo-4,7,10,13,16,23-hexaazahentriacontanoic acid] (H-[His(Trt)]K(Octanoyl)FYSQDGARF-NH2) | 12.2 ± 0.02

From patent publication US20250340591A1, “COMPOSITION FOR PREVENTING OR TREATING INFLAMMATORY BOWEL DISEASE CONTAINING NOVEL COMPOUND” (ANYGEN CO., LTD., priority 2021, published 2025)
